Each block holds one molecule with its values, some of them ahead of it. *1 amine or outer side, *2 acyl side, *3 side chain or, on linkers, in order; H or OH if unused. Where a SMILES comes first, the peptide text is derived from it. Bridges are numbered along the chain shown (N, C = ends). [ ]: non-standard residue; d: D form. X1 = O=C(O)CCCCCCCCCCCCCCCCCCC(=O)N[C@@H](CCCCNC(=O)COCCOCCNC(=O)COCCOCCNC(=O)CCC(=O)N(CCNC(=O)C[*:1])CCNC(=O)C[*:2])C(=O)O; αMeL = CC(C)C[C@](C)(N)C(=O)O; Aib = CC(C)(N)C(=O)O
Columns and labels:
Assay type in all cases: cell-based
GLP-1R = molecular target: T1, GLP-1R (Homo sapiens, UniProt P43220); assay: CreLuc method (CRE-luciferase reporter), HEK293/pGM-CREB-L-Luc/GLP-1R pool; settings: 6 h incubation, read-out: EC50 (pM) for each receptor GLP-1R
T1 construct: expressed in transfected cells
Method: (§1) 1. Insulinotropic analogues can bind to the target receptor on the cell membrane, activate the cAMP response element (CRE), and initiate the expression of downstream luciferase. The expression level is positively correlated with the biological activity of the analogue being tested. After activation, luciferase substrate is added for chemiluminescence detection, and the luminescence intensity is determined to characterize the biological activity of the test compounds. Therefore, the target peptide derivatives (or polypeptide derivatives, i.e., TG1-TG94) prepared in Example 1 and Example 2 can be tested by the CreLuc method. The specific steps are as follows: The stably transfected cell lines HEK293/pGM-CREB-L-Luc/GLP-1R pool, HEK293/pGM-CREB-L-Luc/GIPR pool, and 293HEK/pGM-CREB-L-Luc/GCGR pool were constructed. […] The corresponding test cells were digested (1 min), dispersed by pipetting, and centrifuged (1000 rpm, 5 min). The culture medium was discarded, and the cells were resuspended in freestyle medium, centrifuged again, collected, and counted. The cells were then diluted to a cell density of 5 x 10^5 cells/mL and then added to the detection wells of a 384-well plate (40 µL/20,000 cells/well). Echo was used to add the corresponding analyte dilution series. The cell plate was incubated at 37°C and 5% CO2 for 6 h, then ONE-GLO (20 µL/well) was added for detection. It was kept in the dark for 3 min, then a chemiluminescent microplate reader was used for determination. The plate was read within 30 min, and the determination results were recorded. […] Table 3: EC50 values for target peptide derivatives

GCGR = molecular target: T2, GCGR (Homo sapiens, UniProt P47871); assay: CreLuc method (CRE-luciferase reporter), 293HEK/pGM-CREB-L-Luc/GCGR pool; settings: 6 h incubation, read-out: EC50 (pM) for each receptor GCGR
T2 construct: expressed in transfected cells
Method: as §1

GIPR = molecular target: T3, GIPR (Homo sapiens, UniProt P48546); assay: CreLuc method (CRE-luciferase reporter), HEK293/pGM-CREB-L-Luc/GIPR pool; settings: 6 h incubation, read-out: EC50 (pM) for each receptor GIPR
T3 construct: expressed in transfected cells
T3 sequence (P48546 22-466): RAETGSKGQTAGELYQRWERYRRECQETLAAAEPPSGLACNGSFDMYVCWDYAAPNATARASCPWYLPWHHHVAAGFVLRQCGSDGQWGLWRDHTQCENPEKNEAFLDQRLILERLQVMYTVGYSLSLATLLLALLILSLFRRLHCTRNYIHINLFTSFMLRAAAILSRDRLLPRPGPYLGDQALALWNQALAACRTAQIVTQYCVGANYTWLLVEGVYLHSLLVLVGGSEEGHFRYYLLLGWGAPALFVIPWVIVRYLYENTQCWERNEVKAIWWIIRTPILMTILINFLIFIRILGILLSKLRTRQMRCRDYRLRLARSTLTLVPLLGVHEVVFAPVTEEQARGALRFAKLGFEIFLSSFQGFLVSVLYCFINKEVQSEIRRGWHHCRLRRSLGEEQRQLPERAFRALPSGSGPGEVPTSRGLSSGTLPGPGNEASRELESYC
Method: as §1

T1 sequence (P43220 24-463, species assumed): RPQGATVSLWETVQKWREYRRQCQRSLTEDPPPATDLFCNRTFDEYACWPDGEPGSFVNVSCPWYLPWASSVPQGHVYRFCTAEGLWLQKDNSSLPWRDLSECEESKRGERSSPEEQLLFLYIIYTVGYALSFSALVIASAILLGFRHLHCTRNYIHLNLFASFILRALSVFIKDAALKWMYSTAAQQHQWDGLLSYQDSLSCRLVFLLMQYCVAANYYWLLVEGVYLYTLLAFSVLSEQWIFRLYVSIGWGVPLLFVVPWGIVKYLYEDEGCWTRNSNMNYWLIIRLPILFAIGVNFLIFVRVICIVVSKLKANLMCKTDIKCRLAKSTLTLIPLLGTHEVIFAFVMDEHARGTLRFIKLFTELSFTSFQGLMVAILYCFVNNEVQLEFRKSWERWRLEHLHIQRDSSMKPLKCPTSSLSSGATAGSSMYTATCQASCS
T2 sequence (P47871 26-477, species assumed): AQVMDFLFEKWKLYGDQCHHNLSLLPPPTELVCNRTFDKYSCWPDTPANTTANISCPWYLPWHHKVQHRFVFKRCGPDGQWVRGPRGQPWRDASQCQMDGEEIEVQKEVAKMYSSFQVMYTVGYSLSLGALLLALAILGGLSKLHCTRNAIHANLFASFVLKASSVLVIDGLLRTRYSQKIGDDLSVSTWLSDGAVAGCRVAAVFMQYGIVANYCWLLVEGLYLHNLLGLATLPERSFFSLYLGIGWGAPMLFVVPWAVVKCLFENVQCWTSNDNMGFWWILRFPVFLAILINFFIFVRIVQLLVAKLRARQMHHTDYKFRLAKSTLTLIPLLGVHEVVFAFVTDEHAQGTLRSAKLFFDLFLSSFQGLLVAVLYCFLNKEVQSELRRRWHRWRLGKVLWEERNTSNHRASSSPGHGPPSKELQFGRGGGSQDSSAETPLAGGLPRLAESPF

Structure (SMILES): CC(=O)NCCCC[C@H](NC(=O)[C@H](CCC(=O)O)NC(=O)[C@H](CC(C)C)NC(=O)[C@H](Cc1ccc(O)cc1)NC(=O)[C@H](CCCCN)NC(=O)[C@H](CO)NC(=O)[C@H](Cc1ccc(O)cc1)NC(=O)[C@H](CC(=O)O)NC(=O)[C@H](CO)NC(=O)[C@@H](NC(=O)[C@H](Cc1ccccc1)NC(=O)[C@@H](NC(=O)CNC(=O)[C@H](Cc1c[nH]cn1)NC(=O)C(C)(C)NC(=O)[C@@H](N)Cc1c[nH]cn1)[C@@H](C)O)[C@@H](C)O)C(=O)N[C@@H](CCCCN)C(=O)N[C@@H](Cc1ccc(O)cc1)C(=O)N[C@@H](C)C(=O)NC(C)(C)C(=O)N[C@H]1CSCC(=O)NCCN(C(=O)CCC(=O)NCCOCCOCC(=O)NCCOCCOCC(=O)NCCCC[C@H](NC(=O)CCCCCCCCCCCCCCCCCCC(=O)O)C(=O)O)CCNC(=O)CSC[C@@H](C(=O)NCC(=O)NCC(=O)N2CCC[C@H]2C(=O)N[C@@H](CO)C(=O)N[C@@H](CO)C(=O)NCC(=O)N[C@@H](C)C(=O)N2CCC[C@H]2C(=O)N2CCC[C@H]2C(=O)N2CCC[C@H]2C(=O)N[C@@H](CO)C(N)=O)NC(=O)[C@H](CC(C)C)NC(=O)[C@H](CC(C)C)NC(=O)[C@H](Cc2c[nH]c3ccccc23)NC(=O)[C@H](CCC(N)=O)NC(=O)[C@H](C(C)C)NC(=O)[C@H](Cc2ccccc2)NC1=O [TG14] (H-H[Aib]HGTFTSDYSKYLEK(Ac)KYA[Aib]CFVQWLLCGGPSSGAPPPS-NH2; linker 21-28 via X1)
EC50 (GLP-1R): 311 pM | EC50 (GCGR): 277 pM | EC50 (GIPR): 752 pM

Structure (SMILES): CC[C@H](C)[C@@H]1NC(=O)[C@H](Cc2ccccc2)NC(=O)[C@@H](NC(=O)[C@H](Cc2c[nH]cn2)NC(=O)[C@H](CCC(N)=O)NC(=O)[C@H](C)NC(=O)[C@H](CCCCNC(C)=O)NC(=O)[C@H](CCCCN)NC(=O)[C@H](CC(=O)O)NC(=O)[C@H](CC(C)C)NC(=O)[C@](C)(CC(C)C)NC(=O)[C@@H](NC(=O)[C@H](CO)NC(=O)[C@H](Cc2ccc(O)cc2)NC(=O)[C@H](CC(=O)O)NC(=O)[C@H](CO)NC(=O)[C@@H](NC(=O)[C@H](Cc2ccccc2)NC(=O)[C@@H](NC(=O)CNC(=O)[C@H](CCC(N)=O)NC(=O)C(C)(C)NC(=O)[C@@H](N)Cc2ccc(O)cc2)[C@@H](C)O)[C@@H](C)O)[C@@H](C)CC)CSCC(=O)NCCN(C(=O)CCC(=O)NCCOCCOCC(=O)NCCOCCOCC(=O)NCCCC[C@H](NC(=O)CCCCCCCCCCCCCCCCCCC(=O)O)C(=O)O)CCNC(=O)CSC[C@@H](C(=O)NCC(=O)NCC(=O)N2CCC[C@H]2C(=O)N[C@@H](CO)C(=O)N[C@@H](CO)C(=O)NCC(=O)N[C@@H](C)C(=O)N2CCC[C@H]2C(=O)N2CCC[C@H]2C(=O)N2CCC[C@H]2C(=O)N[C@@H](CO)C(N)=O)NC(=O)[C@H](CC(C)C)NC(=O)[C@H](CC(C)C)NC(=O)[C@H](Cc2ccc(O)cc2)NC(=O)[C@H](CCC(=O)O)NC1=O [TG32] (H-Y[Aib]QGTFTSDYSI[αMeL]LDKK(Ac)AQHCFIEYLLCGGPSSGAPPPS-NH2; linker 21-28 via X1)
EC50 (GLP-1R): 34 pM | EC50 (GCGR): 197 pM | EC50 (GIPR): 11.7 pM

Structure (SMILES): CC[C@H](C)[C@@H]1NC(=O)[C@H](Cc2ccccc2)NC(=O)[C@@H](NC(=O)C(C)(C)NC(=O)[C@H](CCC(N)=O)NC(=O)[C@H](C)NC(=O)[C@H](CCCCNC(C)=O)NC(=O)[C@H](CCCCN)NC(=O)[C@H](CCC(=O)O)NC(=O)[C@H](CC(C)C)NC(=O)[C@](C)(CC(C)C)NC(=O)[C@@H](NC(=O)[C@H](CO)NC(=O)[C@H](Cc2ccc(O)cc2)NC(=O)[C@H](CC(=O)O)NC(=O)[C@H](CO)NC(=O)[C@@H](NC(=O)[C@H](Cc2ccccc2)NC(=O)[C@@H](NC(=O)CNC(=O)[C@H](CCC(N)=O)NC(=O)C(C)(C)NC(=O)[C@@H](N)Cc2ccc(O)cc2)[C@@H](C)O)[C@@H](C)O)[C@@H](C)CC)CSCC(=O)NCCN(C(=O)CCC(=O)NCCOCCOCC(=O)NCCOCCOCC(=O)NCCCC[C@H](NC(=O)CCCCCCCCCCCCCCCCCCC(=O)O)C(=O)O)CCNC(=O)CSC[C@@H](C(=O)NCC(=O)NCC(=O)N2CCC[C@H]2C(=O)N[C@@H](CO)C(=O)N[C@@H](CO)C(=O)NCC(=O)N[C@@H](C)C(=O)N2CCC[C@H]2C(=O)N2CCC[C@H]2C(=O)N2CCC[C@H]2C(=O)N[C@@H](CO)C(N)=O)NC(=O)[C@H](CC(C)C)NC(=O)[C@H](CC(C)C)NC(=O)[C@H](Cc2ccc(O)cc2)NC(=O)[C@H](CCC(=O)O)NC1=O [TG36]
EC50 (GLP-1R): 34.1 pM | EC50 (GCGR): 813 pM | EC50 (GIPR): 10.8 pM

EC50 (GLP-1R): 254 pM | EC50 (GCGR): 330 pM | EC50 (GIPR): 61.2 pM
Structure (SMILES): CC[C@H](C)[C@@H]1NC(=O)[C@H](Cc2ccccc2)NC(=O)[C@@H](NC(=O)C(C)(C)NC(=O)[C@H](CCC(N)=O)NC(=O)[C@H](C)NC(=O)[C@H](CCCCNC(C)=O)NC(=O)[C@H](CCCCN)NC(=O)[C@H](CC(=O)O)NC(=O)[C@H](CC(C)C)NC(=O)[C@](C)(CC(C)C)NC(=O)[C@@H](NC(=O)[C@H](CO)NC(=O)[C@H](Cc2ccc(O)cc2)NC(=O)[C@H](CC(=O)O)NC(=O)[C@H](CO)NC(=O)[C@@H](NC(=O)[C@H](Cc2ccccc2F)NC(=O)[C@@H](NC(=O)CNC(=O)[C@H](CCC(N)=O)NC(=O)C(C)(C)NC(=O)[C@@H](N)Cc2ccc(O)cc2)[C@@H](C)O)[C@@H](C)O)[C@@H](C)CC)CCCCNC(=O)CN(C(=O)CCCNC(=O)COCCOCCNC(=O)COCCOCCNC(=O)CC[C@H](NC(=O)CCCCCCCCCCCCCCCCCCC(=O)O)C(=O)O)CC(=O)NCCCC[C@@H](C(=O)NCC(=O)NCC(=O)N2CCC[C@H]2C(=O)N[C@@H](CO)C(=O)N[C@@H](CO)C(=O)NCC(=O)N[C@@H](C)C(=O)N2CCC[C@H]2C(=O)N2CCC[C@H]2C(=O)N2CCC[C@H]2C(=O)N[C@@H](CO)C(N)=O)NC(=O)[C@H](CC(C)C)NC(=O)[C@H](CC(C)C)NC(=O)[C@H](Cc2ccc(O)cc2)NC(=O)[C@H](CCC(=O)O)NC1=O [TG85]

Structure (SMILES): CC[C@H](C)[C@@H]1NC(=O)[C@H](Cc2ccccc2)NC(=O)[C@@H](NC(=O)C(C)(C)NC(=O)[C@H](CCC(N)=O)NC(=O)[C@H](C)NC(=O)[C@H](CCCCNC(C)=O)NC(=O)[C@H](CCCCN)NC(=O)[C@H](CC(=O)O)NC(=O)[C@H](CC(C)C)NC(=O)[C@](C)(CC(C)C)NC(=O)[C@@H](NC(=O)[C@H](CO)NC(=O)[C@H](Cc2ccncc2)NC(=O)[C@H](CC(=O)O)NC(=O)[C@H](CO)NC(=O)[C@@H](NC(=O)[C@H](Cc2ccccc2)NC(=O)[C@@H](NC(=O)CNC(=O)[C@H](CCC(N)=O)NC(=O)C(C)(C)NC(=O)[C@@H](N)Cc2ccc(O)cc2)[C@@H](C)O)[C@@H](C)O)[C@@H](C)CC)CSCC(=O)NCCN(C(=O)CCC(=O)NCCOCCOCC(=O)NCCOCCOCC(=O)NCCCC[C@H](NC(=O)CCCCCCCCCCCCCCCCCCC(=O)O)C(=O)O)CCNC(=O)CSC[C@@H](C(=O)NCC(=O)NCC(=O)N2CCC[C@H]2C(=O)N[C@@H](CO)C(=O)N[C@@H](CO)C(=O)NCC(=O)N[C@@H](C)C(=O)N2CCC[C@H]2C(=O)N2CCC[C@H]2C(=O)N2CCC[C@H]2C(=O)N[C@@H](CO)C(N)=O)NC(=O)[C@H](CC(C)C)NC(=O)[C@H](CC(C)C)NC(=O)[C@H](Cc2ccc(O)cc2)NC(=O)[C@H](CCC(=O)O)NC1=O [TG38]
EC50 (GLP-1R): 70.2 pM | EC50 (GCGR): 232 pM | EC50 (GIPR): 14.5 pM

Structure (SMILES): CC[C@H](C)[C@@H]1NC(=O)[C@H](Cc2ccccc2)NC(=O)[C@@H](NC(=O)C(C)(C)NC(=O)[C@H](CCC(N)=O)NC(=O)[C@H](C)NC(=O)[C@H](CCCCNC(C)=O)NC(=O)[C@H](CCCCN)NC(=O)[C@H](CC(=O)O)NC(=O)[C@H](CC(C)C)NC(=O)[C@](C)(CC(C)C)NC(=O)[C@@H](NC(=O)[C@H](CO)NC(=O)[C@H](Cc2ccc(O)cc2)NC(=O)[C@H](CC(=O)O)NC(=O)[C@H](CO)NC(=O)[C@@H](NC(=O)[C@](C)(Cc2ccccc2)NC(=O)[C@@H](NC(=O)CNC(=O)[C@H](CCC(N)=O)NC(=O)C(C)(C)NC(=O)[C@@H](N)Cc2ccc(O)cc2)[C@@H](C)O)[C@@H](C)O)[C@@H](C)CC)CSCC(=O)NCCN(C(=O)CCC(=O)NCCOCCOCC(=O)NCCOCCOCC(=O)NCCCC[C@H](NC(=O)CCCCCCCCCCCCCCCCCCC(=O)O)C(=O)O)CCNC(=O)CSC[C@@H](C(=O)NCC(=O)NCC(=O)N2CCC[C@H]2C(=O)N[C@@H](CO)C(=O)N[C@@H](CO)C(=O)NCC(=O)N[C@@H](C)C(=O)N2CCC[C@H]2C(=O)N2CCC[C@H]2C(=O)N2CCC[C@H]2C(=O)N[C@@H](CO)C(N)=O)NC(=O)[C@H](CC(C)C)NC(=O)[C@H](CC(C)C)NC(=O)[C@H](Cc2ccc(O)cc2)NC(=O)[C@H](CCC(=O)O)NC1=O [TG23]
EC50 (GLP-1R): 92.9 pM | EC50 (GCGR): 109 pM | EC50 (GIPR): 75.6 pM
